The mortality is the percentage killed. Lower therefore signals a weak lethal effect.

Data on 9 compounds can be found in patent publication US10730872B2, “Pesticidally active heterocyclic derivatives with sulphur containing sustitutents” (SYNGENTA PARTICIPATIONS AG, priority 2015, dated 2020).

Format in all cases: in vivo
The test system of test [1] is Spodoptera littoralis. Kind of test: Spodoptera littoralis (Egyptian Cotton Leaf Worm), sprayed cotton leaf discs. As to conditions: foliar, 72 h, application rate of 200 ppm, L1 larvae, 3 days after infestation. Here is the method: Cotton leaf discs were placed onto agar in 24-well microtiter plates and sprayed with aqueous test solutions prepared from 10,000 ppm DMSO stock solutions. After drying the leaf discs were infested with five L1 larvae. The samples were assessed for mortality, anti-feeding effect, and growth inhibition in comparison to untreated samples 3 days after infestation. Control of Spodoptera littoralis by a test sample is given when at least one of the categories mortality, anti-feedant effect, and growth inhibition is higher than the untreated sample.

The subject of test [2] is Euschistus heros. Kind of test: Euschistus heros (Neotropical Brown Stink Bug). The conditions noted are these: 120 h, application rate of 200 ppm, sprayed soybean leaves, N2 nymphs, 5 days after infestation, read-out: effect in at least one of the two categories (mortality or growth inhibition). On the procedure:
Soybean leaves on agar in 24-well microtiter plates were sprayed with aqueous test solutions prepared from 10,000 ppm DMSO stock solutions. After drying the leaves were infested with N2 nymphs. The samples were assessed for mortality and growth inhibition in comparison to untreated samples 5 days after infestation.

The test system of test [3] is Plutella xylostella. Kind of test: Plutella xylostella (Diamond Back Moth). The conditions noted are these: 120 h, application rate of 200 ppm, artificial diet, L2 larvae, 5 days after infestation, read-out: effect in at least one of the two categories (mortality or growth inhibition). On the procedure: 24-well microtiter plates with artificial diet were treated with aqueous test solutions prepared from 10,000 ppm DMSO stock solutions by pipetting. After drying, the plates were infested with L2 larvae (10 to 15 per well). The samples were assessed for mortality and growth inhibition in comparison to untreated samples 5 days after infestation.

The test system of test [4] is Diabrotica balteata. Kind of test: Diabrotica balteata (Corn Root Worm). The conditions noted are these: 96 h, application rate of 200 ppm, sprayed maize sprouts, L2 larvae, 4 days after infestation, read-out: effect in at least one of the two categories (mortality or growth inhibition). On the procedure: Maize sprouts placed onto an agar layer in 24-well microtiter plates were treated with aqueous test solutions prepared from 10,000 ppm DMSO stock solutions by spraying. After drying, the plates were infested with L2 larvae (6 to 10 per well). The samples were assessed for mortality and growth inhibition in comparison to untreated samples 4 days after infestation.

Test [5] deals with Myzus persicae. Kind of test: Myzus persicae (Green Peach Aphid): Feeding/Contact Activity. As to conditions: foliar, 144 h, application rate of 200 ppm, sprayed sunflower leaf discs, aphid population of mixed ages, 6 days after infestation. Here is the method: Sunflower leaf discs were placed onto agar in a 24-well microtiter plate and sprayed with aqueous test solutions prepared from 10,000 ppm DMSO stock solutions. After drying, the leaf discs were infested with an aphid population of mixed ages. The samples were assessed for mortality 6 days after infestation.

Bounds are passed on as bounds.

`CCn1c(C(F)(F)F)cc2nc(-c3ncc(C(=O)NC4(C#N)CC4)cc3S(=O)(=O)CC)n(C)c2c1=O` [Compound A25, N-(1-cyanocyclopropyl)-6-[5-ethyl-3-methyl-4-oxo-6-(trifluoromethyl)imidazo[4,5-c]pyridin-2-yl]-5-ethylsulfonyl-pyridine-3-carboxamide]: in test [1], the percent control (mortality, anti-feeding effect or growth inhibition) at 200 ppm is at least 80%. In addition, the percent effect (mortality or growth inhibition) at 200 ppm in test [2] is at least 80%.

In test [1], `CCn1c(C(F)(F)F)cc2nc(-c3ncc(N(C)/C=N/OC)cc3S(=O)(=O)CC)n(C)c2c1=O` [Compound A27, N-[6-[5-ethyl-3-methyl-4-oxo-6-(trifluoromethyl)imidazo[4,5-c]pyridin-2-yl]-5-ethylsulfonyl-3-pyridyl]-N′-methoxy-N-methyl-formamidine] registered a percent control (mortality, anti-feeding effect or growth inhibition) at 200 ppm of at least 80%. The percent effect (mortality or growth inhibition) at 200 ppm in test [3] is at least 80%.

`CCn1c(C(F)(F)F)cc2nc(-c3nc(N(C)CC(F)(F)F)ccc3S(=O)(=O)CC)n(C)c2c1=O` [Compound A33]: the effect mortality or growth inhibition at 200 ppm in test [4] was at least 80%. The compound further returned a percent control (mortality, anti-feeding effect or growth inhibition) at 200 ppm in test [1] of at least 80%. The percent effect (mortality or growth inhibition) at 200 ppm in test [3] is at least 80%.

In the case of `CCn1c(C(F)(F)F)cc2nc(-c3ncc(NS(=O)(=O)C4CC4)cc3S(=O)(=O)CC)n(C)c2c1=O` [Compound A36, N-[6-[5-ethyl-3-methyl-4-oxo-6-(trifluoromethyl)imidazo[4,5-c]pyridin-2-yl]-5-ethylsulfonyl-3-pyridyl]cyclopropanesulfonamide], the mortality at 200 ppm in test [5] was at least 80%.

With `CCS(=O)(=O)c1ccc(NOC)nc1-c1nc2cc(C(F)(F)F)n(C3CC3)c(=O)c2n1C` [Compound A46, 5-cyclopropyl-2-[3-ethylsulfonyl-6-(methoxyamino)-2-pyridyl]-3-methyl-6-(trifluoromethyl)imidazo[4,5-c]pyridin-4-one], the effect mortality or growth inhibition at 200 ppm in test [4] was at least 80%. In test [1], this compound displayed a percent control (mortality, anti-feeding effect or growth inhibition) at 200 ppm of at least 80%. The percent effect (mortality or growth inhibition) at 200 ppm in test [3] and in test [2] was at least 80% in each case.

As for `CCn1c(C(F)(F)F)cc2nc(-c3nc(Br)c(N)cc3S(=O)(=O)CC)n(C)c2c1=O` [Compound A54, 2-(5-amino-6-bromo-3-ethylsulfonyl-2-pyridyl)-5-ethyl-3-methyl-6-(trifluoromethyl)imidazo[4,5-c]pyridin-4-one], the effect mortality or growth inhibition at 200 ppm in test [4] is at least 80%. This compound also registered a percent control (mortality, anti-feeding effect or growth inhibition) at 200 ppm in test [1] of at least 80%. Also, the percent effect (mortality or growth inhibition) at 200 ppm in test [3] is at least 80%.

Turning to `CCn1c(C(F)(F)F)cc2nc(-c3ncc(NC4(C#N)CC4)cc3[S+]([O-])CC)n(C)c2c1=O` (centres unmarked) [Compound A57, 1-[[6-[5-ethyl-3-methyl-4-oxo-6-(trifluoromethyl)imidazo[4,5-c]pyridin-2-yl]-5-ethylsulfinyl-3-pyridyl]amino]cyclopropanecarbonitrile], in test [4], the effect mortality or growth inhibition at 200 ppm is at least 80%. Besides, the percent control (mortality, anti-feeding effect or growth inhibition) at 200 ppm in test [1] is at least 80%. Moreover, the percent effect (mortality or growth inhibition) at 200 ppm in test [3] is at least 80%.

As to `CCn1c(C(F)(F)F)cc2nc(-c3ncc(NC4CC4)cc3[S+]([O-])CC)n(C)c2c1=O` (centres unmarked) [Compound A58, 2-[5-(cyclopropylamino)-3-ethylsulfinyl-2-pyridyl]-5-ethyl-3-methyl-6-(trifluoromethyl)imidazo[4,5-c]pyridin-4-one], in test [4], the effect mortality or growth inhibition at 200 ppm was at least 80%.

On to `CCn1c(C(F)(F)F)cc2nc(-c3nc(C(C)=O)ccc3S(=O)(=O)CC)n(C)c2c1=O` [Compound A70, 2-(6-acetyl-3-ethylsulfonyl-2-pyridyl)-5-ethyl-3-methyl-6-(trifluoromethyl)imidazo[4,5-c]pyridin-4-one], for which, in test [3], the percent effect (mortality or growth inhibition) at 200 ppm was at least 80%.
